The numbers were not newly measured in publication PMC8391575, “Identification of Novel Cathepsin B Inhibitors with Implications in Alzheimer’s Disease: Computational Refining and Biochemical Evaluation” (Cells, 2021), which cites them from elsewhere.

Read-outs that look alike come from different tables or passages of the source.

For this data set, the system named is cathepsin B. As to conditions: cited from earlier work; for pIC50 Experimental: Table 4.
Where [1] appears, read: class of the experimental IC50, read-out: Activity Scale Experimental.
[2] abbreviates: Table S1, read-out: IC50: half maximal inhibitory concentration.

Regarding `N#Cc1c(N2CCCC2)nc(N)c2c(N)nc(N3CCCC3)cc12` [Compound S29, 1,8-diamino-3,6-dipyrrolidin-1-yl-2,7-naphthyridine-4-carbonitrile], the “pIC50 Experimental” value is listed as 5.49. The IC50 under setting [1] is greater than 2500 nM.

With `COc1ccc(-c2cc(=O)c3c(O)cc(O)c(-c4cc(-c5cc(=O)c6c(O)cc(O)cc6o5)ccc4O)c3o2)cc1` [AMF2, 4’’’-methylamentoflavone], for the setting “Figure 1, previously reported inhibitors of cathepsin B, read-out: IC50”, the IC50 was 1030 nM.

Consider `COc1cc(O)c2c(=O)cc(-c3ccc(O)c(-c4c(O)cc(O)c5c(=O)cc(-c6ccc(O)cc6)oc45)c3)oc2c1` [Compound N21, 5,7-dihydroxy-8-[2-hydroxy-5-(5-hydroxy-7-methoxy-4-oxochromen-2-yl)phenyl]-2-(4-hydroxyphenyl)chromen-4-one], for which the “pIC50 Experimental” value was 5.77. For the same compound, the IC50 under setting [2] is 1680 nM. Also, under setting [1], the IC50 was 300 to 2500 nM.

Consider `COc1ccc(C(=O)C(OC(=O)CNC(=O)c2ccco2)c2ccccc2)cc1` (stereo not drawn) [Compound S36, [2-(4-methoxyphenyl)-2-oxo-1-phenylethyl] 2-(furan-2-carbonylamino)acetate], for which the “pIC50 Experimental” value is 4.74. The IC50 under setting [1] is greater than 2500 nM.

Regarding `O=C(OC(C(=O)NCc1cccs1)c1ccccn1)c1cccs1` (stereo not drawn) [Compound S11, [2-oxo-1-pyridin-2-yl-2-(thiophen-2-ylmethylamino)ethyl]thiophene-2-carboxylate], the “pIC50 Experimental” value is 5.2. Further, under setting [1], the IC50 is greater than 2500 nM.

Consider `CC(NC(=O)C(Cc1ccccc1)NC(=O)OCc1ccccc1)C([O-])=C[N+]#N` (stereo not drawn) [Compound S4, 1-diazonio-3-[[3-phenyl-2-(phenylmethoxycarbonylamino)propanoyl]amino]but-1-en-2-olate], for which the “pIC50 Experimental” value was 8.03. Also, the IC50 under setting [1] is less than 300 nM.

As for `COc1ccc(-c2cc(=O)c3c(O)cc(O)c(-c4cc(-c5cc(=O)c6c(O)cc(OC)cc6o5)ccc4OC)c3o2)cc1` [Compound N4, 5,7-dihydroxy-8-[5-(5-hydroxy-7-methoxy-4-oxochromen-2-yl)-2-methoxyphenyl]-2-(4-methoxyphenyl)chromen-4-one], the “pIC50 Experimental” value is listed as 6.21. For the same compound, under setting [2], the IC50 is 620 nM. The IC50 under setting [1] was 300 to 2500 nM.

Take `COc1cc(O)c2c(=O)cc(-c3ccc(OC)c(-c4c(O)cc(O)c5c(=O)cc(-c6ccc(O)cc6)oc45)c3)oc2c1` [Compound N17, 5,7-dihydroxy-8-[5-(5-hydroxy-7-methoxy-4-oxochromen-2-yl)-2-methoxyphenyl]-2-(4-hydroxyphenyl)chromen-4-one]: the “pIC50 Experimental” value is given as 6.26. The IC50 under setting [2] was 550 nM. Besides, the IC50 under setting [1] was 300 to 2500 nM.

Consider `Cn1c(=O)c2c(-c3ccccc3)n(-n3cnnc3)cc2n(C)c1=O` [Compound S30, 1,3-dimethyl-5-phenyl-6-(1,2,4-triazol-4-yl)pyrrolo[3,4-d]pyrimidine-2,4-dione], for which the “pIC50 Experimental” value is listed as 5.93. Moreover, the IC50 under setting [1] is 300 to 2500 nM.

On to `CCCNC(=O)[C@H]1OC1C(=O)N[C@H](C(=O)N1CCC[C@H]1C(=O)O)[C@@H](C)CC` (stereo partly drawn) [Compound S1, (2S)-1-[(2S,3S)-3-methyl-2-[[(3S)-3-(propylcarbamoyl)oxirane-2-carbonyl]amino]pentanoyl]pyrrolidine-2-carboxylic acid], for which the “pIC50 Experimental” value is […]. Also, the IC50 under setting [1] is […].

Take `CC(C)C[C@H](NC(=O)C1OC1C(=O)O)C(=O)NCCCC[C@H](N)C(=O)O` (stereo partly drawn) [Compound N2, 3-[[(2S)-1-[[(5S)-5-amino-5-carboxypentyl]amino]-4-methyl-1-oxopentan-2-yl]carbamoyl]oxirane-2-carboxylic acid]: the “pIC50 Experimental” value is 6.89. The IC50 under setting [2] is 130 nM. Besides, the IC50 under setting [1] is less than 300 nM.

For the compound `CCOC(=O)C(C(=O)OCC)N(C#N)c1nc(SC)nc(N(C)C)n1` [Compound S19, diethyl 2-[cyano-[4-(dimethylamino)-6-methylsulfanyl-1,3,5-triazin-2-yl]amino]propanedioate], the “pIC50 Experimental” value is 4.71. Besides, the IC50 under setting [1] was greater than 2500 nM.
